Reference: US20230192772A1, “ANTIMICROBIAL PEPTIDES AND USES THEREOF” (SORBONNE UNIVERSITE, priority 2016, published 2023)
Values after ≈ are worked out from the molar mass of the structure shown. Square brackets hold non-standard residues; d marks the D form. Peptide text beside a SMILES is read from it.

Legend:
Assay type in all cases: cell-based
[1] = test system: immune cells obtained from mouse bone marrow; assay: Cytotoxic effects on immune cells obtained from mouse bone marrow; details: 12.5 µM; 2 hours
Protocol: The mouse immune cells are obtained from C57BL/6 or Balb/c mouse bone marrow. The peptides are incubated at 37° C., 5% CO2 in the presence of 500,000 immune cells in RPMI medium at varied concentrations for 2 hours. Peptide-free cells are used as the negative control and cells in the presence of DMSO (30%) are used as the positive control. After incubation, the cells are washed then labelled with Trypan blue so as to measure the cell viability by microscope counting. The LC50 is then calculated as being the concentration of DA2N, K12A and DANa peptides inducing the death of 50% of the immune cells.

[2] = test system: Enterococcus faecalis CIP 103015; assay: MIC/MBC (Example 10, MH medium)
Protocol: (§1) The MIC is determined using a growth inhibition test in liquid medium. The MIC is defined as being the lowest peptide concentration capable of inhibiting the bacterial strain tested, after incubation for 18 h at 37° C. The test was carried out in a sterile microtitration plate containing 96 wells. A series of increasing concentrations of each peptide (0.2 to 100 µM) was prepared beforehand in sterile MilliQ water. In each well, 10 µL of peptide was incubated with 90 µL of bacterial suspension (10^7 cfu/mL) in yeast extract-free LB medium. The microplate was incubated at 37° C. for 18 h. The bacterial growth was evaluated by measuring the OD at 620 nm using a plate reader.
(§2) The negative growth inhibition control was obtained by replacing the solution containing the peptide by sterile MilliQ water. The positive control suitable for completely inhibiting the growth of the bacterial strains was obtained by replacing the solution containing the peptide by 10 µL of formaldehyde.
(§3) The results are interpreted by calculating the percentage of bacterial growth in each well according to the formula:
(§4) %Growth = (OD well - OD of T0)/(OD of T100-OD of T0)*100 where
(§5) • OD of T100 = OD of growth control (bacterial suspension free from sample under test, 100% growth), • OD of T0 = OD of sterility control (culture medium + bacterium + 10 µL formaldehyde, 0% growth) and • OD well = OD of well for which it is sought to calculate the growth percentage (bacterial suspension + peptide under test).
(§6) The MBC is defined as being the minimum peptide concentration leaving no surviving bacteria of the inoculum after incubation at 37° C. for 24 hours. This test consists of smearing the contents of the well wherein the peptide has inhibited bacterial growth on a Petri dish (LB agar), followed by incubation for 24 h at 37° C.
(§7) A 10 mL preculture in Muller-Hinton (MH) medium is prepared by inoculating a colony of the bacterial strain of interest. The preculture is incubated at 37° C. under stirring overnight. The culture is subcultured to 1:100 under the same conditions. The culture concentration is evaluated by measuring the turbidity at 600 nm (OD600 nm 1.0 = 5 × 10^8 CFU/mL for E. coli (Gram-negative bacteria) and 1.5 × 10^8 CFU/mL for S. aureus (Gram-positive bacteria). Once the exponential growth phase (OD600 nm = 0.3 - 0.7) has been achieved, the cultures are diluted in MH medium so as to obtain 10^6 CFU/mL (final inoculum concentration).
(§8) The MIC and the MBC were determined as per the protocol described in part 2.1 of Example 2.

[3] = test system: Escherichia coli ATCC 8739; assay: MIC/MBC (Example 10, MH medium)
Protocol: as §1, §2, §3, §4, §5, §6, §7, §8

[4] = test system: Pseudomonas aeruginosa ATCC 9027; assay: MIC/MBC (Example 10, MH medium)
Protocol: as §1, §2, §3, §4, §5, §6, §7, §8

[5] = test system: Staphylococcus aureus ATCC 6538; assay: MIC/MBC (Example 10, MH medium)
Protocol: as §1, §2, §3, §4, §5, §6, §7, §8

[6] = test system: Enterococcus faecalis CIP A186; assay: MIC/MBC (Example 10, MH medium); details: Table 4
Protocol: as §1, §2, §3, §4, §5, §6, §7, §8

[7] = test system: Escherichia coli K12; assay: MIC/MBC (Example 10, MH medium); details: Table 4
Protocol: as §1, §2, §3, §4, §5, §6, §7, §8

[8] = test system: Escherichia coli ML35p; assay: MIC/MBC (Example 10, MH medium); details: Table 4
Protocol: as §1, §2, §3, §4, §5, §6, §7, §8

[9] = test system: Escherichia coli P7 (ESBL); assay: MIC/MBC (Example 10, MH medium); details: Table 4
Protocol: as §1, §2, §3, §4, §5, §6, §7, §8

[10] = test system: Klebsiella oxytoca CIP 7932; assay: MIC/MBC (Example 10, MH medium); details: Table 4
Protocol: as §1, §2, §3, §4, §5, §6, §7, §8

[11] = test system: Klebsiella pneumoniae CIP 52.211; assay: MIC/MBC (Example 10, MH medium); details: Table 4
Protocol: as §1, §2, §3, §4, §5, §6, §7, §8

[12] = test system: Kocuria rhizophila ATCC 9341; assay: MIC/MBC (Example 10, MH medium); details: Table 4
Protocol: as §1, §2, §3, §4, §5, §6, §7, §8

[13] = test system: Lactococcus garviae ATCC 43921; assay: MIC/MBC (Example 10, MH medium); details: Table 4
Protocol: as §1, §2, §3, §4, §5, §6, §7, §8

[14] = test system: Listeria monocytogenes SOR 100; assay: MIC/MBC (Example 10, MH medium); details: Table 4
Protocol: as §1, §2, §3, §4, §5, §6, §7, §8

[15] = test system: Pseudomonas aeruginosa ATCC 27853; assay: MIC/MBC (Example 10, MH medium); details: Table 4
Protocol: as §1, §2, §3, §4, §5, §6, §7, §8

[16] = test system: Salmonella enterica CIP 8297; assay: MIC/MBC (Example 10, MH medium); details: Table 4
Protocol: as §1, §2, §3, §4, §5, §6, §7, §8

[17] = test system: Staphylococcus aureus MRSA; assay: MIC/MBC (Example 10, MH medium); details: Table 4
Protocol: as §1, §2, §3, §4, §5, §6, §7, §8

[18] = test system: Staphylococcus aureus ST 1065; assay: MIC/MBC (Example 10, MH medium); details: Table 4
Protocol: as §1, §2, §3, §4, §5, §6, §7, §8

[19] = test system: Staphylococcus epidermidis BM 3302; assay: MIC/MBC (Example 10, MH medium); details: Table 4
Protocol: as §1, §2, §3, §4, §5, §6, §7, §8

[20] = test system: Vibrio parahemolyticus IFREMER 01/252; assay: MIC/MBC (Example 10, MH medium); details: Table 4
Protocol: as §1, §2, §3, §4, §5, §6, §7, §8

[21] = test system: Yersinia ruckeri ATCC 29473; assay: MIC/MBC (Example 10, MH medium); details: Table 4
Protocol: as §1, §2, §3, §4, §5, §6, §7, §8

[22] = Table 5, E. faecalis CIP 103015
[23] = Table 5, P. aeruginosa ATCC 9027
[24] = Table 4, Enterococcus faecalis CIP 103015
[25] = Table 4, Escherichia coli ATCC 8739
[26] = Table 4, Pseudomonas aeruginosa ATCC 9027
[27] = Table 4, Staphylococcus aureus ATCC 6538

Compound: CSCC[C@@H](NC(=O)[C@@H](CC(N)=O)NC(=O)[C@H](NC(=O)[C@H](NC(=O)[C@@H](C)NC(=O)[C@@H](CC(N)=O)NC(=O)[C@@H](CC(C)C)NC(=O)[C@H](NC(=O)[C@@H](C)NC(=O)[C@@H](CCCCN)NC(=O)CNC(=O)[C@@H](C)NC(=O)[C@H](NC(=O)[C@@H](CCCCN)NC(=O)CNC(=O)[C@H](NC(=O)[C@@H](CCCCN)NC(=O)[C@@H](CCCCN)NC(=O)[C@@H](CC(C)C)NC(=O)[C@@H](CC(C)C)NC(=O)[C@H](NC(=O)[C@@H](CCCCN)NC(=O)[C@@H](Cc1c[nH]c2ccccc12)NC(=O)[C@@H](CC(C)C)NC(=O)[C@@H](C)N)[C@H](C)O)C(C)C)C(C)C)C(C)C)C(C)C)[C@H](C)O)C(=O)N[C@H](C)C(=O)N[C@H](CC(N)=O)C(=O)N[C@H](CCC(N)=O)C(=O)N[C@H](CC(N)=O)C(=O)O [DA2N (D), dAdLdWdKdTdLdLdKddKdVdGdKdVdAdGdKdAdVdLdNdAdVdTdNdMdAdNdQdN] (H-[dA][dL][dW][dK][dT][dL][dL][dK][dK][dV]G[dK][dV][dA]G[dK][dA][dV][dL][dN][dA][dV][dT][dN][dM][dA][dN][dQ][dN]-OH; N-terminus and C-terminus assumed)
- death of immune cells [1]: induce the death of immune cells at a concentration of 12.5 µM with a comparable efficacy to DA2N
- MBC [2, 22]: 3.1 µM (≈ 9.55 µg/mL)
- MIC [2, 22]: 3.1 µM (≈ 9.55 µg/mL)
- MBC ([3]; Table 5, E. coli ATCC 8739): 0.8 µM (≈ 2.47 µg/mL)
- MIC ([3]; Table 5, E. coli ATCC 8739): 0.4 µM (≈ 1.23 µg/mL)
- MBC [4, 23]: 0.8 µM (≈ 2.47 µg/mL)
- MIC [4, 23]: 0.8 µM (≈ 2.47 µg/mL)
- MBC ([5]; Table 5, S. aureus ATCC 6538): 0.8 µM (≈ 2.47 µg/mL)
- MIC ([5]; Table 5, S. aureus ATCC 6538): 0.8 µM (≈ 2.47 µg/mL)

Compound: CC[C@H](C)[C@H](NC(=O)CN)C(=O)NCC(=O)N[C@@H](C)C(=O)N[C@H](C(=O)N[C@@H](CC(C)C)C(=O)N[C@@H](CCCCN)C(=O)N[C@H](C(=O)N[C@@H](CC(C)C)C(=O)N[C@H](C(=O)N[C@H](C(=O)NCC(=O)N[C@@H](CC(C)C)C(=O)N1CCC[C@H]1C(=O)N[C@@H](C)C(=O)N[C@@H](CC(C)C)C(=O)N[C@H](C(=O)N[C@@H](CO)C(=O)N[C@@H](Cc1c[nH]c2ccccc12)C(=O)N[C@H](C(=O)N[C@@H](CCCCN)C(=O)N[C@@H](CCCNC(=N)N)C(=O)N[C@@H](CCCCN)C(=O)N[C@@H](CCCNC(=N)N)C(=O)N[C@@H](CCC(N)=O)C(=O)N[C@@H](CCC(N)=O)C(N)=O)[C@@H](C)CC)[C@@H](C)CC)[C@@H](C)O)[C@@H](C)O)C(C)C)C(C)C [Melittin]
- MBC [2, 24]: 1.25 µM (≈ 3.56 µg/mL)
- MIC [2, 24]: 1.25 µM (≈ 3.56 µg/mL)
- MBC [2, 22]: 1.2 µM (≈ 3.42 µg/mL)
- MIC [2, 22]: 1.2 µM (≈ 3.42 µg/mL)
- MBC [6]: 12.5 µM (≈ 35.6 µg/mL)
- MIC [6]: 12.5 µM (≈ 35.6 µg/mL)
- MBC [3, 25]: 2.5 µM (≈ 7.12 µg/mL)
- MIC [3, 25]: 2.5 µM (≈ 7.12 µg/mL)
- MBC ([3]; Table 5, E. coli ATCC 8739): 2.5 µM (≈ 7.12 µg/mL)
- MIC ([3]; Table 5, E. coli ATCC 8739): 2.5 µM (≈ 7.12 µg/mL)
- MBC [7]: 10 µM (≈ 28.5 µg/mL)
- MIC [7]: 10 µM (≈ 28.5 µg/mL)
- MBC [8]: 10 µM (≈ 28.5 µg/mL)
- MIC [8]: 10 µM (≈ 28.5 µg/mL)
- MBC [9]: 6.25 µM (≈ 17.8 µg/mL)
- MIC [9]: 6.25 µM (≈ 17.8 µg/mL)
- MBC [10]: 50 µM (≈ 142 µg/mL)
- MIC [10]: 25 µM (≈ 71.2 µg/mL)
- MBC [11]: 10 µM (≈ 28.5 µg/mL)
- MIC [11]: 10 µM (≈ 28.5 µg/mL)
- MBC [12]: 0.8 µM (≈ 2.28 µg/mL)
- MIC [12]: 0.8 µM (≈ 2.28 µg/mL)
- MBC [13]: 25 µM (≈ 71.2 µg/mL)
- MIC [13]: 6.25 µM (≈ 17.8 µg/mL)
- MBC [14]: 3.12 µM (≈ 8.88 µg/mL)
- MIC [14]: 1.5 µM (≈ 4.27 µg/mL)
- MBC [15]: > 50 µM
- MIC [15]: 50 µM (≈ 142 µg/mL)
- MBC [4, 26]: 5 µM (≈ 14.2 µg/mL)
- MIC [4, 26]: 5 µM (≈ 14.2 µg/mL)
- MBC [4, 23]: 5 µM (≈ 14.2 µg/mL)
- MIC [4, 23]: 5 µM (≈ 14.2 µg/mL)
- MBC [16]: > 50 µM
- MIC [16]: 50 µM (≈ 142 µg/mL)
- MBC [5, 27]: 5 µM (≈ 14.2 µg/mL)
- MIC [5, 27]: 5 µM (≈ 14.2 µg/mL)
- MBC ([5]; Table 5, S. aureus ATCC 6538): 5 µM (≈ 14.2 µg/mL)
- MIC ([5]; Table 5, S. aureus ATCC 6538): 5 µM (≈ 14.2 µg/mL)
- MBC [17]: 12.5 µM (≈ 35.6 µg/mL)
- MIC [17]: 6.25 µM (≈ 17.8 µg/mL)
- MBC [18]: 10 µM (≈ 28.5 µg/mL)
- MIC [18]: 10 µM (≈ 28.5 µg/mL)
- MBC [19]: 10 µM (≈ 28.5 µg/mL)
- MIC [19]: 10 µM (≈ 28.5 µg/mL)
- MBC [20]: > 50 µM
- MIC [20]: > 50 µM
- MBC [21]: 12.5 µM (≈ 35.6 µg/mL)
- MIC [21]: 6.25 µM (≈ 17.8 µg/mL)
